Experimental findings from BindingDB's records for doi:10.1016/s0960-894x(99)00089-x (Kyoto Pharmaceutical University, 1999) are described below.

A short description of the test: Inhibitory activity against HIV-1 IIIB in CEM-SS infected cells (Experiment 1).

As to `Cc1cn([C@H]2C[C@H](N=[N+]=[N-])[C@@H](CO)O2)c(=O)[nH]c1=O` [1-((2R,4S,5S)-4-Azido-5-hydroxymethyl-tetrahydro-furan-2-yl)-5-methyl-1H-pyrimidine-2,4-dione], a half-maximal effect (EC50) was put at 126 nM.
